Here are results for three molecules from paper PMC4663078 (Bioorganic & medicinal chemistry letters, 2015).

Like-named read-outs stand apart in the source and are kept apart here. Some results are limits rather than exact numbers.

For orientation: MIC means the lowest concentration that inhibits growth of the organism. For orientation: IC50 means the concentration that inhibits the measured activity by half.

The test system of one series is CIMRSA 7. As to the kind of experiment: microdilution susceptibility test. The note with it: N=3. The class given is cell-based, Staphylococcus aureus. A general note: In broth dilution the organism is exposed to a series of concentrations in liquid medium.
The test system of series [1] is MRSA (ATCC 43300). As to the kind of experiment: microdilution susceptibility test. The series is classed as cell-based, Staphylococcus aureus. Conditions: N=3.
The subject of the next series is CIMRSA 6. As to the kind of experiment: microdilution susceptibility test. The series is classed as cell-based, Staphylococcus aureus. Conditions: N=3.
The subject of a further series is CIMRSA 3. As to the kind of experiment: microdilution susceptibility test. The class given is cell-based, Staphylococcus aureus. Conditions: N=3.
Another series deals with CIMRSA 4. As to the kind of experiment: microdilution susceptibility test. The series is classed as cell-based, Staphylococcus aureus. Conditions: N=3.
A further series has as its system Klebsiella pneumoniae. The note with it: cited from earlier work.
A further series addresses S. aureus DNA gyrase (Staphylococcus aureus, UniProt P0A0K8+P20831). As to the kind of experiment: DNA gyrase supercoiling inhibition. The class given is biochemical.
The test system of a further series is Pseudomonas aeruginosa. The note with it: cited from earlier work.
In series [2] the test system is Staphylococcus saprophyticus. The note with it: cited from earlier work.
The next series relates to CIMRSA 2. As to the kind of experiment: microdilution susceptibility test. Conditions: N=3. The class given is cell-based, Staphylococcus aureus.
The test system of a further series is CIMRSA 5. As to the kind of experiment: microdilution susceptibility test. Conditions: N=3. The class given is cell-based, Staphylococcus aureus.
The next series relates to E. coli (ATCC 25922). As to the kind of experiment: microdilution susceptibility test. The series is classed as cell-based, Escherichia coli. Conditions: N=3.
For series [3], the system named is clinical isolates of MRSA. The note with it: cited from earlier work.
The subject of a further series is Vero cells. As to the kind of experiment: CTG Luminescent Cell Viability Assay. The note with it: N=3. The class given is cell-based, monkey.
In another series the test system is Bacillus cereus. The note with it: cited from earlier work.
In series [4] the test system is MRSA (ATCC 43300). The note with it: cited from earlier work.
The subject of series [5] is PBMC isolated from healthy volunteers. As to the kind of experiment: cytotoxicity in peripheral blood mononuclear cells. The series is classed as cell-based, human. The note with it: N=3.
A further series deals with CIMRSA 1. As to the kind of experiment: microdilution susceptibility test. The series is classed as cell-based, Staphylococcus aureus. The note with it: N=3.
The nature of series [6]: CTG Luminescent Cell Viability Assay. The class given is cell-based, monkey. The note with it: monkey, Vero cells.
The subject of the next series is eight MRSA strains. As to the kind of experiment: antibacterial activity against eight MRSA strains. The note with it: 6 compared with 2. The series is classed as cell-based, Staphylococcus aureus.

Chain of S. aureus DNA gyrase (P20831 whole entry): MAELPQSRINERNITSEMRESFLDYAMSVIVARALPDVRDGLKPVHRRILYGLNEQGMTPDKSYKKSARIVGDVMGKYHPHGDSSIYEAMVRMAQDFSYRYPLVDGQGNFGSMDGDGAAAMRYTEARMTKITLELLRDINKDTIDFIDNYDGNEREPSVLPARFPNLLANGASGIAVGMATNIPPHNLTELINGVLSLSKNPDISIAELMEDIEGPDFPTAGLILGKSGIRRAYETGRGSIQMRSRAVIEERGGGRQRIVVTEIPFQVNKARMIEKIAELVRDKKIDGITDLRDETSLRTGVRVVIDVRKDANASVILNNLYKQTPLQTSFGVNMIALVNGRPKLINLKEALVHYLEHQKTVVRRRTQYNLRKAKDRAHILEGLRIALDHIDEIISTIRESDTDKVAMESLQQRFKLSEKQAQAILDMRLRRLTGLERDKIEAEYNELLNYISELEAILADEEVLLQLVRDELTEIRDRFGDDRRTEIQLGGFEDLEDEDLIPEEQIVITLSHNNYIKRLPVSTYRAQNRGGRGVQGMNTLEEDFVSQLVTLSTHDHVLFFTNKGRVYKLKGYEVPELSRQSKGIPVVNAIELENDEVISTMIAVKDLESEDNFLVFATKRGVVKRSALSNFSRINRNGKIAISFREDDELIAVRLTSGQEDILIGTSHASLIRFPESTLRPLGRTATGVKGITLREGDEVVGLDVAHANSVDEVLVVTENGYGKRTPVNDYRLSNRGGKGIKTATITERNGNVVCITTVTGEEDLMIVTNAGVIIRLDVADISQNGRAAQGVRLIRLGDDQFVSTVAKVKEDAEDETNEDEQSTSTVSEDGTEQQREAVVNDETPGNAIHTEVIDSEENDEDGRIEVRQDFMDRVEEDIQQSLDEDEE
Chain of S. aureus DNA gyrase (P0A0K8 whole entry): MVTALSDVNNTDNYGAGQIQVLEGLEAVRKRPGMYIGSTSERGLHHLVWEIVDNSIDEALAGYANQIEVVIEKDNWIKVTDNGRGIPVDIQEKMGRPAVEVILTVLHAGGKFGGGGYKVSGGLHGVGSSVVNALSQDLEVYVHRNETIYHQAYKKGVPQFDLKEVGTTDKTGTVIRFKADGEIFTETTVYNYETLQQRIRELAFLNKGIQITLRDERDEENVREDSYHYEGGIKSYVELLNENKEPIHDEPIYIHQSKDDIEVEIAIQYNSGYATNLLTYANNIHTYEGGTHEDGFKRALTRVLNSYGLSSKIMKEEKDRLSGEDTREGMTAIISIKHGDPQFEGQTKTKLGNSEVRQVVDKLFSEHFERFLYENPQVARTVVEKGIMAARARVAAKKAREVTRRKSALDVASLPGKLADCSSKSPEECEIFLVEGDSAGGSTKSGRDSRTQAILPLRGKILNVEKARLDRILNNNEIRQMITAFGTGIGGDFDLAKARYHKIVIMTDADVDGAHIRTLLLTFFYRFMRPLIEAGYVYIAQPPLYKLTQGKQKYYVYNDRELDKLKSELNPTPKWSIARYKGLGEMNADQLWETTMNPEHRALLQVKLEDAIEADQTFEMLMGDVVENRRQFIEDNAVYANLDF

On to 2-hexadecynoic acid [compound 4], for which the “IC50 ± SEM” value in the series with CIMRSA 7 came out at 4.7 ± 0.3 µg/mL; in the series with MRSA (ATCC 43300) [1] it was 5.1 ± 0.1 µg/mL; with CIMRSA 6 it was 5.7 ± 0.8 µg/mL; in the series with CIMRSA 3 it was 6.3 ± 0.2 µg/mL; with CIMRSA 4, 6.5 ± 0.1 µg/mL; with CIMRSA 2, 5.0 ± 0.5 µg/mL. In addition, the results for the “IC50 ± SEM” value with CIMRSA 5 and in the series with CIMRSA 1 were 5.1 ± 0.2 µg/mL and 4.2 ± 0.1 µg/mL, respectively. For the same molecule, the minimum inhibitory concentration (MIC) with CIMRSA 7 is 7.8 µg/mL; against MRSA (ATCC 43300) [1] it was 7.8 µg/mL; against CIMRSA 6, 7.8 µg/mL; against CIMRSA 3, 15.6 µg/mL; against CIMRSA 4 it was 15.6 µg/mL; with Klebsiella pneumoniae it was 7.8 µg/mL. The minimal inhibitory concentration (MIC) in the series on Pseudomonas aeruginosa is 125 µg/mL; in [2] it was 15.6 µg/mL; in the series with CIMRSA 2 it was 7.8 µg/mL; with CIMRSA 5, 7.8 µg/mL; against E. coli (ATCC 25922), >1,000 μg/mL; in series [3], 3.9 µg/mL. The minimal inhibitory concentration (MIC) is 31.3 µg/mL with Bacillus cereus, 15.6 µg/mL in the series on MRSA (ATCC 43300) [4] and 7.8 µg/mL against CIMRSA 1. Besides, the “fold more active against DNA gyrase than 6” value at S. aureus DNA gyrase (4 compared with 6) came to 3.7 fold. Further, the “Vero cells cytotoxicity IC50±SEM” value in the series on Vero cells is 1.6 ± 0.4 µg/mL. The “PBMC cytotoxicity IC50±SEM” value in [5] came out at 68.9 ± 0.7 µg/mL.

For the molecule `CCCCCCCCCCCCCCCC(=O)Oc1ccc(/C=C/C(=O)/C=C/c2ccc(OC(=O)CCCCCCCCCCCCCCC)c(OC)c2)cc1OC` [C5-Curc-PA, C5-Curcumin-Palmitic Acid], on S. aureus DNA gyrase (ethidium bromide stained gels, Fig. 2), the “inhibition of S. aureus DNA gyrase (in words)” value was “not inhibitory”.

In series [6], `CCCCCCCCCCCCCC#CC(=O)Oc1ccc(/C=C/C(=O)/C=C/c2ccc(OC(=O)C#CCCCCCCCCCCCCC)c(OC)c2)cc1OC` [compound 6, C5-Curcumin-2-Hexadecynoic Acid] gave an IC50 of more than 100 µg/mL. In addition, in the series on eight MRSA strains, the “fold increase of antibacterial activity against MRSA strains relative to 2” value is 4-8 fold.
